“And” between values parts separate entries of the source, which are not always exact repeats. Identical values can stand only once. Like-named read-outs stand apart in the source and are kept apart here.
Tests used:
QGY-7703 HCC cells = experiment: HCC cell viability (MTT), QGY-7703; assay type: cell-based
Description: (§1) Cells were plated at 3×10^4 cells/mL, A549 and HeLa, and 1×10^4 cells/mL, NIH/3T3, in 96-well plates and incubated for 24 h to allow for cell adhesion. LSF-library compounds were dissolved in DMSO, serial diluted in appropriate medium and added to cells in triplicate (2 plates). DMSO was added to control wells at a final concentration of 1%. After 72 h incubation in the presence of compound, confluent cells were assayed for growth proliferation with CellTiter 96® AQueous One Solution Cell Proliferation Assay (MTS) (Promega) according to the manufacturer's protocol. Plates were read at 490 nm on a microplate reader, and IC50 values were determined as the percentage of compound-treated cell growth to control cell growth. HCC cells—one hour after plating HCC cells onto 96-well plates, compound or vehicle (DMSO) was added to the desired concentrations, keeping DMSO at 0.5%. At indicated time points, cell viability was assayed using the CellTiter 96® Non-Radioactive Cell Proliferation Assay (MTT) (Promega).

A549 cells = experiment: Cell proliferation assay (MTS), A549; assay type: cell-based; conditions: for GI50: MTS
Description: as §1
(§2) QGY-7703 and A549 cells were cultured at 37° C. in 5% CO2 in DMEM (Dulbecco's modification of Eagle's Medium; Corning) supplemented with 10% Fetal Bovine Serum (FBS; Invitrogen). NIH-3T3 cells were cultured at 37° C. in 5% CO2 in DMEM supplemented with 10% Fetal Calf Serum (FCS; Atlanta Biologicals). For cell viability assays, 1,500 cells were seeded in 96-well plates and treated with FQI-34 or vehicle (DMSO) at appropriate concentrations (DMSO at 1%) after 20 hours. After 72-hour incubation with compound or vehicle, cell growth was assessed via the Promega CellTiter 96® AQueous One Solution Cell Proliferation Assay, a colorimetric method to determine the number of viable cells. 20 μL of the CellTiter 96® AQueous One Solution Reagent was added directly into cultured wells and incubated for one hour, after which the absorbance at 490 nm was read with a 96-well plate reader (Opys MR Microplate Reader). The CellTiter 96® AQueous One Solution contains an MTS tetrazolium compound which is bioreduced by cells into a colored formazan product that is soluble in tissue culture medium. The quantity of formazan product as measured by absorbance is directly proportional to the number of living cells in culture. GI50 values were determined from plots of the percentage of compound-treated cell growth to vehicle cell growth vs. compound concentration (GraphPad Prism; non-linear regression 4-parameter curve fit with variable slope).

NIH/3T3 cells = experiment: Cell proliferation assay (MTS), NIH/3T3; assay type: cell-based; conditions: Mus musculus, NIH3T3
Description: as §1, §2

LSF = target: T1, LSF (Homo sapiens, UniProt Q12800); experiment: LSF-dependent luciferase reporter assay in NIH 3T3 cells; assay type: cell-based; design: expressed in transfected cells; host or cells: NIH 3T3
T1 sequence (Q12800 1-502): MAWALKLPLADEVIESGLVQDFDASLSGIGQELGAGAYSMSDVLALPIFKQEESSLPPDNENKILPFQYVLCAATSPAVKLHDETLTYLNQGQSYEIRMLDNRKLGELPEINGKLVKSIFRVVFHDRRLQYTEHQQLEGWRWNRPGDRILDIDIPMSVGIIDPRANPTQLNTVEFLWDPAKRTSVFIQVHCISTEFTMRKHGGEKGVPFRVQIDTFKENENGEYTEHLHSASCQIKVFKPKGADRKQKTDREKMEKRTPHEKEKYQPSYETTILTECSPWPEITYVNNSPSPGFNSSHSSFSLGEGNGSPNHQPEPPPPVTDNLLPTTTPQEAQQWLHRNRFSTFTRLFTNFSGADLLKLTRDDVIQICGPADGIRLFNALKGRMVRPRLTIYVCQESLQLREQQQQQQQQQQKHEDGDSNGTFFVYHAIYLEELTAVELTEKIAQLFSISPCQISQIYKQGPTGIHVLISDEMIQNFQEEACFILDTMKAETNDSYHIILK
Description: NIH 3T3 cells were transfected with the expression construct pEF1α-LSF, a LSF expression vector^6,20; the reporter construct pGL3B-WT4E1b, a firefly luciferase reporter vector driven by LSF^12; phRL-TK, a control renilla luciferase reporter vector; and pEFGP, essentially as previously described^12. Five hours after transfection, either vehicle (DMSO) or FQI compound was added, keeping DMSO at 0.5%. Cell extracts were harvested 36 hours post-transfection and firefly and renilla luciferase activities measured via a dual luciferase assay (Promega). Five μl of extract was mixed with 30 μl of luciferase assay reagent (Promega), and luminescence measured for 10 seconds using a 20/20n luminometer (Turner Biosystems). Subsequently, 30 μl of Stop & Glo reagent (Promega) was added, and luminescence also measured for 10 seconds. LSF transactivation activity is given as relative luciferase activity, the ratio of firefly to renilla activities.
NIH-3T3 cells were cultured at 37° C. in 5% CO2 in DMEM (Dulbecco's modification of Eagle's Medium; Corning) supplemented with 10% FCS (FCS; Atlanta Biologicals). Approximately 24 hours prior to transfection, 200,000 cells were plated in 35 mm dishes. After 24 hours, cells were ˜70% confluent, and were transfected for 5 hours with pEF1α-LSF, the reporter construct pGL3B-WT4E1b, phRLTK, and pEFGP (Grant, T. J. et al. Antiproliferative small-molecule inhibitors of transcription factor LSF reveal oncogene addiction to LSF in hepatocellular carcinoma. PNAS (2012), 109, 1-6). Vehicle (DMSO) or FQI-34 was then added, keeping the DMSO at 0.5%. Cell extracts were harvested 36 h post-transfection, and firefly and renilla luciferase activities were measured via a dual luciferase assay (Promega Dual-Luciferase Reporter Assay System). Relative luciferase activity represents firefly luciferase activity normalized to that of renilla luciferase in each extract. IC50 values were determined from plots of normalized luciferase activity vs. compound concentration (Prism GraphPad; non-linear regression 4-parameter curve fit with variable slope).

[1] = rats, single IV dose, 50 mg/mL dose level as printed

Description for Rat tolerability: The purpose of the study was to determine the tolerability of FQI-34 in rats as administered by IV at 3 dose levels-5, 15, and 50 mg/kg. FQI-34 was formulated in 20% DMSO/50% PEG-400/30% saline, and administered by IV at 5 mL/kg for compound or 10 mL/kg for vehicle alone. 6 rats per dose arm were used (3 male and 3 female), with single dose administration with monitoring over 14 days. Gross necropsy was performed at the end of the study.

Row | Compound | effect of exogenous thymidine on treated cell viability profiles (QGY-7703 HCC cells; QGY-7703, 20 μM thymidine) | concentration at which decrease in HCC cell viability was observable (QGY-7703 HCC cells; QGY-7703, between 24 and 48 hours) [µM] | cellular proliferation of QGY-7703 cells (MTT) (QGY-7703 HCC cells; in words) | GI50 (A549 cells; Homo sapiens, 72 h, read-out: GI50 (μM) A549) [µM] | IC50 (A549 cells; Homo sapiens, Example 7, FIG. 8, read-out: growth inhibition of A549 Cell Line IC50) [nM] | GI50 (NIH/3T3 cells; 72 h, MTS, read-out: GI50 (μM) NIH/3T3) [µM] | IC50 (NIH/3T3 cells; Example 7, FIG. 8, read-out: growth inhibition of NIH/3T3 Cell Line IC50) [nM] | GI50 (NIH/3T3 cells; Table 3, read-out: GI50 (μM) NIH 3T3) [µM] | IC50 (LSF; NIH 3T3 cells, dual luciferase, ranges where few concentrations tested, read-out: IC50 (μM) LSF-dependent reporter assat NIH 3T3) | gross necropsy (Rat tolerability; end of study, 14 days after single IV dose of 5, 15 or 50 mg/kg) | condition of all rats for duration of study (Rat tolerability; excluding the male rat B, 5, 15 and 50 mg/kg IV, 14 days) | observations in all other rats at this dose level (Rat tolerability; rats, single IV dose, 15 mg/mL dose as printed, 14 days) | mortality (Rat tolerability; rats, single IV dose, 15 mg/mL dose as printed, believed to be due to stress and not compound related) | observations upon dosing (Rat tolerability; [1]) | time until rats returned to normal (Rat tolerability; [1]) [min] | GI50 (A549 cells; Homo sapiens, 1,500 cells seeded, 72-hour incubation, read-out: GI50 in A549 cells) [µM] | GI50 (NIH/3T3 cells; 1,500 cells seeded, 72-hour incubation, MTS, read-out: GI50 in NIH-3T3 cells) [µM] | IC50 (LSF; Table 5, read-out: LSF-reporter assay IC50) [µM] | IC50 (LSF; Table 8, read-out: LSF-reporter assay IC50) [µM] | IC50 (LSF; dual-luciferase reporter, NIH-3T3, FIG. 12, read-out: LSF-Target affinity IC50) [µM]
1 | CCOc1ccccc1C1CC(=O)Nc2cc3c(cc21)OCO3 (racemic) [FQI1, 8-(2-ethoxyphenyl)-7,8-dihydro-[1,3]dioxolo[4,5-g]quinolin-6(5H)-one] | not affected | 2 | decreased overall cellular proliferation | 6.3 | 6300 ± 1100 | 3 | 3000 ± 850 | 3 ± 0.9 | ~2.4 µM and 2.4 µM | – | – | – | – | – | – | – | – | – | – | –
2 | CCOc1cc(N(C)C)ccc1C1CC(=O)Nc2cc3c(cc21)OCO3 (centres unmarked) [FQI-34, 8-(4-(dimethylamino)-2-ethoxyphenyl)-7,8-dihydro-[1,3]dioxolo[4,5-g]quinolin-6(5H)-one] | – | – | – | – | – | – | – | – | – | no abnormal findings | within normal limits | remained normal throughout the study | Male Rat B died | pronation, increased respiratory rate, and decreased activity | ≤ 30 | 1.8 | 1.49 | 0.726 | 0.726 | 0.59
